Each structure is given as a SMILES string.

The test system of this test is PC3 cells. As to the kind of experiment: NAMPT Cell Proliferation Assay. The format is cell-based. The settings on record: Homo sapiens, PC-3, 120 h, 5 days incubation, cell viability by Cell Titer Glo. The method in brief:
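Five-day CellTiter-Glo viability readout in PC3 cells grown in RPMI/10% heat-inactivated FBS. Compounds added after overnight attachment as a 10-fold dilution series, […]. Percent inhibition fitted to sigmoidal dose-response to derive IC50.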
In turn, `O=C(Nc1ccc(OC2CCN(C(=O)c3nccs3)CC2)cc1)C1CN(c2ccnnc2)C1` [Example 283, 1-(pyridazin-4-yl)-N-(4-{[1-(1,3-thiazol-2-ylcarbonyl)piperidin-4-yl]oxy}phenyl)azetidine-3-carboxamide] returned an IC50 of 72.5 nM.

`O=C(Nc1ccc(C2CN(C(=O)c3ccc(F)cc3F)C2)cc1)[C@H]1CCN(c2cccnn2)C1` [Example 792, (3S)-N-{4-[1-(2,4-difluorobenzoyl)azetidin-3-yl]phenyl}-1-(pyridazin-3-yl)pyrrolidine-3-carboxamide] returned an IC50 of 8.8 nM.

`Cc1ncccc1N1CC(C(=O)Nc2ccc(C3CCN(C(=O)C4CCCCC4)CC3)cc2)C1` [Example 196, N-{4-[1-(cyclohexylcarbonyl)piperidin-4-yl]phenyl}-1-(2-methylpyridin-3-yl)azetidine-3-carboxamide] displayed an IC50 of 111 nM.

With `O=C(Nc1ccc(C2CCN(C(=O)c3cccc(OC(F)(F)F)c3)CC2)cc1)C1CN(c2cccnn2)C1` [Example 356, 1-(pyridazin-3-yl)-N-(4-{1-[3-(trifluoromethoxy)benzoyl]piperidin-4-yl}phenyl)azetidine-3-carboxamide], it took 9.09 nM to reach half-maximal inhibition (IC50).

As to `CCCCn1nc(C(C)(C)C)cc1-c1ccc(NC(=O)C2CN(c3cccnn3)C2)cc1` [Example 866, N-[4-(1-butyl-3-tert-butyl-1H-pyrazol-5-yl)phenyl]-1-(pyridazin-3-yl)azetidine-3-carboxamide], the IC50 was 7.92 nM.

`CC(=O)N[C@@H](CC(C)C)C(=O)N1CCC(c2ccc(NC(=O)C3CN(c4cccnc4C)C3)cc2)CC1` [Example 180, N-{4-[1-(N-acetyl-L-leucyl)piperidin-4-yl]phenyl}-1-(2-methylpyridin-3-yl)azetidine-3-carboxamide] registered an IC50 of 164 nM.

The compound `O=C(Nc1ccc(-c2cnn(CC3CCCCO3)c2)cc1)[C@H]1CCN(c2cccnn2)C1` (stereo partly drawn) [Example 772, (3S)-1-(pyridazin-3-yl)-N-{4-[1-(tetrahydro-2H-pyran-2-ylmethyl)-1H-pyrazol-4-yl]phenyl}pyrrolidine-3-carboxamide] registered an IC50 of 63.6 nM.

Compound `Cc1ncccc1N1CC(C(=O)Nc2ccc(C3CCN(C(=O)CCC(F)(F)F)CC3)cc2)C1` [Example 172, 1-(2-methylpyridin-3-yl)-N-{4-[1-(4,4,4-trifluorobutanoyl)piperidin-4-yl]phenyl}azetidine-3-carboxamide] registered an IC50 of 329 nM.

`CC[C@H](C)C(=O)N1CCC(Oc2ccc(NC(=O)C3CN(c4ccnnc4)C3)cc2)CC1` [Example 307, N-[4-({1-[(2S)-2-methylbutanoyl]piperidin-4-yl}oxy)phenyl]-1-(pyridazin-4-yl)azetidine-3-carboxamide] returned an IC50 of 20.8 nM.

For `O=C(Nc1ccc(C2CCN(C(=O)c3cccc(F)c3)CC2)cc1)C1CN(c2ccnnc2)C1` [Example 554, N-{4-[1-(3-fluorobenzoyl)piperidin-4-yl]phenyl}-1-(pyridazin-4-yl)azetidine-3-carboxamide], the IC50 came out at 2.63 nM.

The compound `O=C(Nc1ccc(OC2CCN(C(=O)Cc3ccc(OC(F)(F)F)cc3)CC2)cc1)C1CN(c2ccnnc2)C1` [Example 275, 1-(pyridazin-4-yl)-N-{4-[(1-{[4-(trifluoromethoxy)phenyl]acetyl}piperidin-4-yl)oxy]phenyl}azetidine-3-carboxamide] showed a half-inhibitory concentration (IC50) of 683 nM.

`O=C(Nc1ccc(C2CCN(C(=O)c3cccc(F)c3)CC2)cc1F)C1CN(c2cccnn2)C1` [Example 830, N-{2-fluoro-4-[1-(3-fluorobenzoyl)piperidin-4-yl]phenyl}-1-(pyridazin-3-yl)azetidine-3-carboxamide] registered an IC50 of 7.96 nM.

In turn, `Cc1ncccc1N1CC(C(=O)Nc2ccc(C3CCN(C(=O)C4CC4C)CC3)cc2)C1` (stereo not drawn) [Example 163, N-(4-{1-[(2-methylcyclopropyl)carbonyl]piperidin-4-yl}phenyl)-1-(2-methylpyridin-3-yl)azetidine-3-carboxamide] registered an IC50 of 120 nM.

As for `O=C(Nc1ccc(C2CCN(C(=O)c3ccccc3F)CC2)cc1)C1CN(c2ccc(F)nn2)C1` [Example 819, N-{4-[1-(2-fluorobenzoyl)piperidin-4-yl]phenyl}-1-(6-fluoropyridazin-3-yl)azetidine-3-carboxamide], 8.56 nM corresponded to half-maximal inhibition (IC50).

Turning to `O=C(Nc1ccc(OC2CCN(C(=O)c3cc(F)cc(F)c3)CC2)cc1)C1CN(c2ccnnc2)C1` [Example 299, N-(4-{[1-(3,5-difluorobenzoyl)piperidin-4-yl]oxy}phenyl)-1-(pyridazin-4-yl)azetidine-3-carboxamide], the IC50 was 84.6 nM.

`O=C(Nc1ccc(O[C@H]2CCN(C(=O)c3cc(F)cc(F)c3)C2)cc1)[C@H]1CCN(c2cccnn2)C1` [Example 826, (3S)—N-(4-{[(3S)-1-(3,5-difluorobenzoyl)pyrrolidin-3-yl]oxy}phenyl)-1-(pyridazin-3-yl)pyrrolidine-3-carboxamide] displayed an IC50 of 98.3 nM.

In the case of `O=C(Nc1ccc(C2CCN(C(=O)c3cc(Cl)ccc3Cl)CC2)cc1)C1CN(c2cccnn2)C1` [Example 363, N-{4-[1-(2,5-dichlorobenzoyl)piperidin-4-yl]phenyl}-1-(pyridazin-3-yl)azetidine-3-carboxamide], the midpoint of inhibition, the IC50, lay at 5.6 nM.

`O=C(Nc1ccc(C2CCN(C(=O)c3cncs3)CC2)cc1)C1CN(c2cccnn2)C1` [Example 431, 1-(pyridazin-3-yl)-N-{4-[1-(1,3-thiazol-5-ylcarbonyl)piperidin-4-yl]phenyl}azetidine-3-carboxamide] gave a concentration for half-maximal inhibition (IC50) of 1.67 nM.

Turning to `Cc1ccc(C(=O)N2CCC(c3ccc(NC(=O)C4CN(c5cccnn5)C4)cc3)CC2)c(C)c1` [Example 358, N-{4-[1-(2,4-dimethylbenzoyl)piperidin-4-yl]phenyl}-1-(pyridazin-3-yl)azetidine-3-carboxamide], the IC50 is 1.86 nM.

`O=C(Nc1ccc(OC2CCN(C(=O)CC3CC3)CC2)cc1)C1CN(c2cccnn2)C1` [Example 233, N-(4-{[1-(cyclopropylacetyl)piperidin-4-yl]oxy}phenyl)-1-(pyridazin-3-yl)azetidine-3-carboxamide] gave an IC50 of 8.73 nM.

Compound `COCCn1nc(C2CC2)cc1-c1ccc(NC(=O)C2CN(c3cccnn3)C2)cc1` [Example 807, N-{4-[3-cyclopropyl-1-(2-methoxyethyl)-1H-pyrazol-5-yl]phenyl}-1-(pyridazin-3-yl)azetidine-3-carboxamide] showed a half-inhibitory concentration (IC50) of 4.15 nM.

For `Cc1cccc(C(=O)N2CCC(c3ccc(NC(=O)[C@H]4CCN(c5cccnn5)C4)cc3)CC2)c1C` [Example 728, (3S)-N-{4-[1-(2,3-dimethylbenzoyl)piperidin-4-yl]phenyl}-1-(pyridazin-3-yl)pyrrolidine-3-carboxamide], the IC50 turned out to be 6.97 nM.

`O=C(Nc1ccc(C2CCN(C(=O)c3ccsc3)CC2)cc1)[C@H]1CCN(c2cccnn2)C1` [Example 655, (3S)-1-(pyridazin-3-yl)-N-{4-[1-(thiophen-3-ylcarbonyl)piperidin-4-yl]phenyl}pyrrolidine-3-carboxamide] displayed an IC50 of 0.475 nM.

On to `O=C(N[C@H]1CCN(c2cccnn2)C1)c1ccc(C2CCN(C(=O)c3cccc(F)c3)CC2)s1` [Example 754, 5-[1-(3-fluorobenzoyl)piperidin-4-yl]-N-[(3S)-1-(pyridazin-3-yl)pyrrolidin-3-yl]thiophene-2-carboxamide], for which it took 94.8 nM to reach half-maximal inhibition (IC50).

Regarding `O=C(Nc1ccc(C2CCN(C(=O)c3cccc(O)c3)CC2)cc1)C1CN(c2cccnn2)C1` [Example 343, N-{4-[1-(3-hydroxybenzoyl)piperidin-4-yl]phenyl}-1-(pyridazin-3-yl)azetidine-3-carboxamide], the IC50 was 6.53 nM.

`CC(C)(C)CC(=O)N1CCC(Oc2ccc(NC(=O)C3CN(c4cccnc4)C3)cc2)CC1` [Example 41, N-(4-{[1-(3,3-dimethylbutanoyl)piperidin-4-yl]oxy}phenyl)-1-(pyridin-3-yl)azetidine-3-carboxamide] returned an IC50 of 3.76 nM.

In the case of `O=C(Nc1ccc(O[C@@H]2CCN(C(=O)c3cc(F)cc(F)c3)C2)cc1)[C@H]1CCN(c2cccnn2)C1` [Example 778, (3S)-N-(4-{[(3R)-1-(3,5-difluorobenzoyl)pyrrolidin-3-yl]oxy}phenyl)-1-(pyridazin-3-yl)pyrrolidine-3-carboxamide], the IC50 came out at 19.7 nM.

Turning to `CCOCCC(=O)N1CCC(c2ccc(NC(=O)C3CN(c4cccnc4C)C3)cc2)CC1` [Example 175, N-{4-[1-(3-ethoxypropanoyl)piperidin-4-yl]phenyl}-1-(2-methylpyridin-3-yl)azetidine-3-carboxamide], half-maximal inhibition (IC50) required 683 nM.

In the case of `O=C(Nc1ccc(C2CCN(C(=O)c3ccc(O)cc3)CC2)cc1)[C@H]1CCN(c2cccnn2)C1` [Example 732, (3S)-N-{4-[1-(4-hydroxybenzoyl)piperidin-4-yl]phenyl}-1-(pyridazin-3-yl)pyrrolidine-3-carboxamide], inhibition was half-maximal at 29.9 nM (IC50).

As to `O=C(Nc1ccc(O[C@@H]2CCN(C(=O)c3cccs3)C2)cc1)C1CN(c2cccnn2)C1` [Example 511, 1-(pyridazin-3-yl)-N-(4-{[(3R)-1-(thiophen-2-ylcarbonyl)pyrrolidin-3-yl]oxy}phenyl)azetidine-3-carboxamide], the IC50 stood at 0.82 nM.

In turn, `O=C(Nc1ccc(O[C@@H]2CCN(C(=O)C3CCC(F)(F)CC3)C2)cc1)C1CN(c2cccnn2)C1` [Example 524, N-[4-({(3R)-1-[(4,4-difluorocyclohexyl)carbonyl]pyrrolidin-3-yl}oxy)phenyl]-1-(pyridazin-3-yl)azetidine-3-carboxamide] gave an IC50 of 5.73 nM.

Regarding `O=C(N[C@H]1CCN(c2cccnn2)C1)c1ccc(C2CCN(C(=O)[C@H]3CCCO3)CC2)s1` [Example 766, N-[(3S)-1-(pyridazin-3-yl)pyrrolidin-3-yl]-5-{1-[(2R)-tetrahydrofuran-2-ylcarbonyl]piperidin-4-yl}thiophene-2-carboxamide], the midpoint of inhibition, the IC50, lay at 787 nM.

As to `CCOCC(=O)N1CCC(c2ccc(NC(=O)C3CN(c4cccnn4)C3)cc2)CC1` [Example 432, N-{4-[1-(ethoxyacetyl)piperidin-4-yl]phenyl}-1-(pyridazin-3-yl)azetidine-3-carboxamide], the concentration for half-maximal inhibition (IC50) came to 8 nM.

These data come from US20130303509A1, “NAMPT INHIBITORS” (AbbVie Inc., priority 2012, published 2013).
